Experimental data published in patent publication US9656984B2, “PI3K/AKT/mTOR inhibitors and pharmaceutical uses thereof” (UNIVERSITE DE RENNES 1, priority 2013, dated 2017).

How the values were obtained:
AKT phosphorylation = test: In cellulo IC50 of AKT phosphorylation in CEM cells (Western blot densitometry); type: cell-based; conditions: Homo sapiens, CCRF-CEM, 2 hours incubation, AKT phosphorylation vs whole AKT, read-out: In vivo IC50
Method: CEM cells were incubated for 2 hours with the indicated concentrations of each mentioned compound of formula (I). Cells were then lysed and 100 μg of protein was loaded per line in an SDS-PAGE. Bands from AKT phosphorylation and whole AKT observed by Western blot were scanned and quantified by densitometric analysis. Based on these values, an in cellulo IC50 (half maximal inhibitory concentration) was measured for each compound of formula (I).
(§1) Immunoblots Excepted for immunoprecipitation experiments in which cells were lyzed with RIPA buffer, cells were lyzed for 30 min at 4° C. in Lysis buffer (25 mM HEPES pH 7.4, 1% v/v Triton X-100, 150 mM NaCl, 2 mM EGTA supplemented with a mix of protease inhibitors). Protein concentration was determined by the bicinchoninic acid method (Pierce, Rockford, Ill., USA) according to the manufacturer's protocol. Proteins were resolved by 8, 10 or 12% SDS-PAGE and transferred to a nitrocellulose membrane (GE Healthcare, Buckinghamshire, UK). The membrane was blocked 15 min with TBST (50 mM Tris, 160 mM NaCl, 0.05% v/v Tween 20, pH 7.4) containing 5% w/v dried skimmed milk (TBS™). Primary antibody was incubated overnight at 4° C. in TBS™. The membrane was intensively washed (TBST) and then the peroxydase-labeled anti-mouse IgG1 or IgG2a (CliniSciences, Nanterre, France) was added for 45 min. Proteins were visualized with the enhanced chemiluminescence substrate kit (ECL RevelBIOt®, Ozyme, Saint Quentin en Yvelines, France).

[1] = system: PI3K/AKT activity (AKT phosphorylation); test: PI3K/AKT/mTOR pathway inhibitory activity: level of AKT phosphorylation in CEM cells over time; type: cell-based, human; conditions: 10 μM, FIGS. 7 and 8
Method: The CEM cell was incubated with 10 μM of each mentioned compound of formula (I) for the indicated times and then cells were lysed and 100 μg of protein was loaded per line and resolved by SDS-PAGE. The levels of AKT phosphorylation (hallmark of PI3K activation) and total AKT (loading control) were analyzed by Western blot and the amount of AKT phosphorylation relative to the total amount of protein AKT was quantified by densitometric analysis, the intensity of each band was scanned and the level of AKT phosphorylation was reported to the amount of whole AKT and the percentage of phosphorylated-AKT was depicted.
as §1

[2] = system: MDA-MB-453 (HER2 positive) breast tumor cell line; test: Cell death by MTT assay, MDA-MB-453; type: cell-based, human; conditions: 24 hours, mean of two experiments
Method: (§2) The ER-positive breast tumor cell lines MCF-7 and T47-D and the HER2 positive breast tumor cell lines MDA-MB-453 and BT474 (also ER-positive) were incubated with the indicated concentration of each mentioned compound of formula (I) for 24 hours and then cell death was assessed using MTT assay.
(§3) For each cell line, the percentage of cell death (mean of four experiments for cell lines MCF-7 and T47-D, and two experiments for cell lines MDA-MB-453 and BT474) is given in view of the increasing concentration of each tested compound of the invention.
(§4) Cell viability was assessed using the 3-[4,5-dimethylthiazol-2-yl]-2,5-diphenyltetrazolium bromide (MTT) viability assay (1). In brief, cells (4×10^4 per well) were cultured for 20 h in flat-bottomed 96 well plates with various concentrations of the apoptosis inducer. Then 0.015 ml of MTT (5 mg/ml in PBS) was added to each well and incubated for 4 h at 37° C. Formazan salt precipitats were dissolved by adding 0.115 ml of isopropyl alcohol containing 1% formic acid (v/v), and the absorbance was measured at 570 nm.

[3] = system: T47-D (ER-positive) breast tumor cell line; test: Cell death by MTT assay, T47-D; type: cell-based, human; conditions: 24 hours, mean of four experiments
Method: as §2, §3, §4

[4] = system: BT474 (ER-positive/HER2-positive) breast tumor cell line; test: Cell death by MTT assay, BT474; type: cell-based, human; conditions: 24 hours, mean of two experiments
Method: as §2, §3, §4

[5] = system: MCF-7 (ER-positive) breast tumor cell line; test: Cell death by MTT assay, MCF-7; type: cell-based, human; conditions: 24 hours, mean of four experiments
Method: as §2, §3, §4

| Structure (SMILES) | IC50 (AKT phosphorylation) | inhibitory activity on PI3K/AKT (level of AKT phosphorylation) [1] | percentage of cell death ([2]; MDA-MB-453, 0.390625 μM) | percentage of cell death ([2]; MDA-MB-453, 0.78125 μM) | percentage of cell death ([2]; MDA-MB-453, 1.5625 μM) | percentage of cell death ([2]; MDA-MB-453, 3.125 μM) | percentage of cell death ([2]; MDA-MB-453, 6.25 μM) | percentage of cell death ([2]; MDA-MB-453, 12.5 μM) | percentage of cell death ([2]; MDA-MB-453, 25 μM) | percentage of cell death ([2]; MDA-MB-453, 50 μM) | percentage of cell death ([3]; 6.25 μM) | percentage of cell death ([3]; 12.5 μM) | percentage of cell death ([3]; 25 μM) | percentage of cell death ([3]; 50 μM) | percentage of cell death ([4]; BT474, 6.25 μM) | percentage of cell death ([4]; BT474, 12.5 μM) | percentage of cell death ([5]; MCF-7, 6.25 μM) | percentage of cell death ([5]; MCF-7, 12.5 μM) | percentage of cell death ([5]; MCF-7, 25 μM) | percentage of cell death ([5]; MCF-7, 50 μM) | other results |
| --- | --- | --- | --- | --- | --- | --- | --- | --- | --- | --- | --- | --- | --- | --- | --- | --- | --- | --- | --- | --- | --- |
| CCOc1cccc2c1OC(c1ccc(Cl)cc1)C([N+](=O)[O-])=C2 (centres unmarked) [Compound 14, 2-(4-chloro-phenyl)-8-ethoxy-3-nitro-2H-chromene] | 10 µM | very strong inhibitors | – | – | – | – | – | – | – | – | – | – | – | – | – | – | – | – | – | – | – |
| O=[N+]([O-])C1=Cc2cccc(Br)c2OC1c1ccc(Cl)cc1 (centres unmarked) [Compound 19, 8-bromo-2-(4-chloro-phenyl)-3-nitro-2H-chromene] | > 10 µM | very strong inhibitors | 0% | 0% | 0% | 24.69% | 53.93% | 91.89% | 98.05% | 101.13% | – | – | – | – | – | – | 0% | 25.75% | 52.14% | 84.65% | – |
| CCOc1cccc2c1OC(c1ccc(Br)cc1)C([N+](=O)[O-])=C2 (centres unmarked) [Compound 13, 2-(4-bromo-phenyl)-8-ethoxy-3-nitro-2H-chromene] | 8 µM | very strong inhibitors | – | – | – | – | – | – | – | – | – | – | – | – | – | – | – | – | – | – | – |
| O=[N+]([O-])C1Cc2cc(Br)ccc2OC1c1ccc(F)cc1 (centres unmarked) [Compound 7, 6-bromo-2-(4-fluorophenyl)-3-nitro-3,4-dihydro-2H-chromene] | – | – | 1.13% | 0% | 13.84% | 52.93% | 65.61% | 97.05% | 102.46% | 100.25% | 34.43% | 85.1% | 92.07% | 88.3% | 44.85% | 55.3% | 10.88% | 38.7% | 79.7% | 95.55% | percentage of cell death ([4]; BT474, 25 μM): 91.87%; percentage of cell death ([4]; BT474, 50 μM): 96.07% |

Second part, led by results:

| IC50 (AKT phosphorylation) | Structure (SMILES) | inhibitory activity on PI3K/AKT (level of AKT phosphorylation) [1] | percentage of cell death ([2]; MDA-MB-453, 0.390625 μM) | percentage of cell death ([2]; MDA-MB-453, 0.78125 μM) | percentage of cell death ([2]; MDA-MB-453, 1.5625 μM) | percentage of cell death ([2]; MDA-MB-453, 3.125 μM) | percentage of cell death ([2]; MDA-MB-453, 6.25 μM) | percentage of cell death ([2]; MDA-MB-453, 12.5 μM) | percentage of cell death ([2]; MDA-MB-453, 25 μM) | percentage of cell death ([2]; MDA-MB-453, 50 μM) | percentage of cell death ([3]; 6.25 μM) | percentage of cell death ([3]; 12.5 μM) | percentage of cell death ([3]; 25 μM) | percentage of cell death ([3]; 50 μM) | percentage of cell death ([4]; BT474, 6.25 μM) | percentage of cell death ([4]; BT474, 12.5 μM) | percentage of cell death ([5]; MCF-7, 6.25 μM) | percentage of cell death ([5]; MCF-7, 12.5 μM) | percentage of cell death ([5]; MCF-7, 25 μM) | percentage of cell death ([5]; MCF-7, 50 μM) | other results |
| --- | --- | --- | --- | --- | --- | --- | --- | --- | --- | --- | --- | --- | --- | --- | --- | --- | --- | --- | --- | --- | --- |
| 0.4 µM | O=[N+]([O-])C1=Cc2cc(Br)ccc2OC1c1ccc(Br)cc1 (centres unmarked) [Compound 9, 6-bromo-2-(4-bromo-phenyl)-3-nitro-2H-chromene] | very strong inhibitors | 1.52% | 7.56% | 4.67% | 53.8% | 71.22% | 87.47% | 97.49% | 98.67% | 20.53% | 92.97% | 91.2% | 93.62% | 25.95% | 71.4% | 0% | 32.14% | 52.18% | 80.16% | percentage of cell death ([4]; BT474, 25 μM): 88.01%; percentage of cell death ([4]; BT474, 50 μM): 93.62% |
| 1.5 µM | O=[N+]([O-])C1=Cc2cccc(Br)c2OC1c1ccc(Br)cc1 (centres unmarked) [Compound 18, 8-bromo-2-(4-bromo-phenyl)-3-nitro-2H-chromene] | very strong inhibitors | 3.17% | 3.17% | 0% | 0% | 45.963% | 81.73% | 93.72% | 100% | 0% | 0% | 23.71% | 78.28% | – | – | – | – | – | – | – |
